Reference: patent publication US20190060371A1, “METHODS FOR CONTROLLED PROLIFERATION OF VESTIBULAR STEM CELLS / GENERATING INNER EAR HAIR CELLS USING WNT AND TGFBETA-INHIBITION” (Frequency Therapeutics, Inc., priority 2016, published 2019)
“Also recorded” adds a separate entry of the source.

Experiments:
[1] = test system: supporting cell/stem cell; experiment: Expansion of Sox2 and Sox9 positive cells from vestibular organs in 3D Matrigel culture; assay type: cell-based, neonatal mice; conditions: for colony size compared to Wnt agonism alone (FIG. 5): TGF-beta inhibitor added to CHIR99021 in a background of GF; for cell growth when added to Wnt agonism (C) (total cells, FIG. 2): added to GF+C (CHIR99021), D10
Experimental: Isolation of stem cells from the inner ear: All animal studies were conducted under an approved institutional protocol according to National Institutes of Health guidelines. For experiments with neonatal mice (postnatal days 1-3), the vestibular organs were dissected in HBSS. The vestibular organs were then treated with TrypLE (Life Technologies) for 15-20 minutes at […]. Single cells obtained by mechanical trituration were filtered (40 μm) and suspended in Matrigel (Corning) for 3D culture. Cells were cultured in a 1:1 mixture of DMEM and F12, supplemented with Glutamax (GIBCO), N2, B27 (Invitrogen), EGF (50 ng/mL; Chemicon), bFGF (50 ng/mL; Chemicon), IGF1 (50 ng/mL; Chemicon) and a composition comprising the following agents: CHIR99021 (a Wnt activator), 616452 (a TGF-beta inhibitor), Noggin (a BMP4 inhibitor), VPA (HDAC inhibitor), and combinations there. Media were changed every other day. Total cells were quantified after 10 days (D10) in culture in multiple conditions. (i) GF; ([…]6); wherein On D10, cell colonies were dissociated into single cells using TrypLE (Gibco). The cells were then stained with propidium iodide (PI) and analyzed using a flow cytometer expression. The number of cells were quantified. […] Also on D10, cells were stained with Sox2 (data not shown), as well as Sox9, Rhodamine Phalloidin (stains F-actin), and DAPI (nuclear stain) (see FIG. 3) to assess the identity of the cell populations. Colonies were visualized using confocal microscopy. Sox2 and Sox9 are stem cell markers in the balance organs.

progenitor colonies = experiment: Differentiation of Sox2 and Sox9 progenitor cell colonies into hair cells; assay type: cell-based, neonatal mice; conditions: gamma secretase inhibition; confocal images
Experimental: Isolation of stem cells from the inner ear: All animal studies were conducted under an approved institutional protocol according to National Institutes of Health guidelines. For experiments with neonatal mice (postnatal days 1-3), the vestibular organs were dissected in HBSS. The vestibular organs were then treated with TrypLE (Life Technologies) for 15-20 minutes at […]. Single cells obtained by mechanical trituration were filtered (40 μm) and suspended in Matrigel (Corning) for 3D culture.
Differentiation of Sox2 and Sox9 Progenitor Cells Stem cell colonies were differentiated in a 1:1 mixture of DMEM and F12, supplemented with Glutamax (GIBCO), N2, B27 (Invitrogen), with the addition of molecules that drive differentiation, or after removal of growth factors without the addition of molecules that drive differentiation. Small molecules were added to the culture to test their effect on differentiation.
Indicative of hair cells, the cells express Myo VIIa (green) and have actin hair bundles (red).

Compound | colony size compared to Wnt agonism alone (FIG. 5) [1] | cell growth when added to Wnt agonism (C) (total cells, FIG. 2) ([1]; flow cytometer) | further results
NC(=O)c1ccc(-c2nc(-c3ccc4c(c3)OCO4)c(-c3ccccn3)[nH]2)cc1 [SB-431542, 4-[4-(1,3-Benzodioxol-5-yl)-5-(2-pyridinyl)-1H-imidazol-2-yl]-benzamide] | larger supporting cell/stem cell colonies | – | –
Cc1cccc(-c2n[nH]cc2-c2ccc3ncccc3n2)n1 [Compound 616452, 2-(3-(6-Methylpyridin-2-yl)-1H-pyrazol-4-yl)-1,5-naphthyridine] | – | improved stem cell growth | –
Cc1c[nH]c(-c2cnc(NCCNc3ccc(C#N)cn3)nc2-c2ccc(Cl)cc2Cl)n1 [CHIR99021] | – | – | supporting cell/stem cell growth (total cells, FIG. 2) ([1]; added to GF (EGF, FGF, IGF), 10 days (D10), flow cytometer): promoted supporting cell/stem cell growth; supporting cell/stem cell growth and colony formation (FIG. 5) ([1]; in a background of GF): promoted supporting cell/stem cell growth and colony formation
Cc1cccc(-c2nn(C(=S)Nc3ccccc3)cc2-c2ccnc3ccccc23)n1 [Compound A-83-01, 3-(6-Methylpyridin-2-yl)-4-(4-quinolyl)-1-phenylthiocarbamoyl-1H-pyrazole] | larger colonies | – | colony size compared to Wnt agonism alone (FIG. 5) ([1]; listed as A 83-01): larger supporting cell/stem cell colonies
CCCC(CCC)C(=O)O [VPA, valproic acid] | – | inhibited cell growth | –
C[C@H](NC(=O)[C@@H](O)c1cc(F)cc(F)c1)C(=O)N[C@@H]1C(=O)N(C)c2ccccc2-c2ccccc21 [LY411575] | – | – | conversion of colonies into hair cells (Myosin VIIA, actin hair bundles; FIG. 4) (progenitor colonies): differentiated into high purity populations of hair cells; also recorded: converted into high purity hair cell populations
